Consider five compounds from patent US20260091209A1, “DRUG DELIVERY DEVICE” (priority 2022, published 2026).

Data set [1] is described as follows: Drug release rate into 50:50 DMSO:water release media, HPLC. The data set is classed as physicochemical. Conditions: for completeness of release after 7 days / course of release (plateau): FOLFIRINOX components from device, FIG. 5; for course of release (plateau): over 7 days. The protocol: Drug release rate was measured using 50 mL of release media consisting of 50:50 DMSO:water to ensure that all drugs in the composition remained under sink conditions. Each device was suspended above the release media in a 50 mL sealed Duran bottle with only the permeable release zone in contact with the release media. The Duran bottle was subsequently placed in a shaking incubator at 37° C. and 60 RPM. 5 mL samples of release media were removed and replaced with 5 mL of fresh media either every day for 6 days or at day 1, 3, 5 and 7. The samples were analysed for drug concentration using HPLC.
Release of the drug oxaliplatin by (i) an exposed sponge and (ii) a device according to the present invention was compared. The sponge was a gelatin sponge exposed to 50 mL of release media consisting of 50:50 DMSO. The sponge had the proportions 5 mm×10 mm×10 mm. […] The implantable device according to the invention contained a sponge within the enclosed space. Drug release was determined according to the methodology outlined above.
Release of the drug components of the FOLFIRINOX regimen from a device according to the invention was investigated. […] The implantable device according to the invention contained a sponge within the enclosed space. Drug release was determined according to the methodology outlined above.
The release of the drug irinotecan over 6 days through various membranes for use as the permeable release zone was investigated, to show how the device of the invention provides the skilled person with control over the release profile for the drug, by varying properties of the membrane.

The test system of the next data set is pancreatic cancer. Conditions: cited from earlier work.
[2] abbreviates: 1 mm EVA membrane, no pores, 75% infill.

In the case of `CCc1c2c(nc3ccc(OC(=O)N4CCC(N5CCCCC5)CC4)cc13)-c1cc3c(c(=O)n1C2)COC(=O)[C@]3(O)CC` [irinotecan], in data set [1] (4 pores each, over 6 days, FIG. 6D), the “release rate, membrane pore sizes 3 mm, 4 mm and 5 mm” value is “as pore size increased the rate of release also increased”. In data set [1] (setting [2]), the “completeness of release after 7 days” value was “still not complete” and the “course of release (plateau)” value is reported as “began to plateau after three days”. Moreover, the “release character across all membranes investigated” value in data set [1] (device, over 6 days) was “useful sustained release”. Besides, in data set [1] (device, over 6 days, FIG. 6A), the “release rate, membrane thickness 1 mm versus 2 mm” value was “released faster through the membrane with a thickness of 1 mm”. Also, the “release rate, 3D printed membrane infill 50%, 75% and 100%” value in data set [1] (device, over 6 days, FIG. 6B) is “as the percentage infill increased, the release rate slowed”. For the same compound, the “release rate, membranes with one, two or four pores” value in data set [1] (pores 3 mm diameter, over 6 days, FIG. 6C) is “as the number of pores increased the rate of release also increased”.

In the case of `O=C1[O][Pt]2([NH][C@@H]3CCCC[C@H]3[NH]2)[O]C1=O` [oxaliplatin], in data set [1] (setting [2]), the “completeness of release after 7 days” value is “still not complete” and the “course of release (plateau)” value was “began to plateau after three days”. Moreover, the “completeness of release at 7 days (168 hours)” value in data set [1] (device, 1 mm EVA membrane, no pores, 75% infill, sponge inside, FIG. 4) is listed as “not complete”. This compound also showed a release plateau in data set [1] (device, 1 mm EVA membrane, no pores, 75% infill, after 5 days, FIG. 4) of 75%. Further, the “time to complete release” value in data set [1] (exposed gelatin sponge (comparative), FIG. 3) was at most 7 h.

For the compound `Nc1nc2c(c(=O)[nH]1)N(C=O)C(CNc1ccc(C(=O)N[C@@H](CCC(=O)O)C(=O)O)cc1)CN2` (stereo partly drawn) [leucovorin], in data set [1] (setting [2]), the “completeness of release after 7 days” value was “still not complete” and the “course of release (plateau)” value is listed as “began to plateau after three days”.

Take `O=c1[nH]cc(F)c(=O)[nH]1` [fluorouracil]: in data set [1] (setting [2]), the “completeness of release after 7 days” value is “still not complete” and the “course of release (plateau)” value is “began to plateau after three days”.

Take `Nc1ccn([C@@H]2O[C@H](CO)[C@@H](O)C2(F)F)c(=O)n1` [gemcitabine]: the median disease-free survival in the data set with pancreatic cancer (Conroy et al (2018), patients after surgery) was 12.8 months. In addition, in the data set with pancreatic cancer (Conroy et al (2018)), the “disease-free survival rate at 3 years” value was 21.4%, the median overall survival was 35.0 months and the “overall survival rate at 3 years” value was 48.6%. In the data set on pancreatic cancer (Conroy et al.), the “adverse events of grade 3 or 4, share of patients” value was 52.9%.
